Experimental data taken from publication PMC8335354 (Biology of Reproduction, 2021).
Entries after “also recorded” stand apart in the source; their conditions may differ.

Key:
[1] = system: mouse SCNT-derived embryos; assay: In vitro development of SCNT-derived embryos treated with HDAC inhibitors; format: cell-based
[2] = system: mouse SCNT-derived embryos; assay: In vivo development of SCNT-derived embryos, morula/blastocyst transfer; details: 8 h treatment
[3] = system: mouse SCNT-derived embryos; assay: In vivo development of SCNT-derived embryos, two-cell transfer; details: for No. of implantations / No. of offspring / No. of placentas only / implantations (%) / offspring (%) / placentas only (%): 8 h treatment, two-cell transfer
[4] = system: pups derived from HDAC inhibitor-treated SCNT-derived embryos; assay: Body and placental weights of cloned pups at term; format: in vivo, mouse; details: 19.5 dpc, mean ± SD
[5] = system: parthenogenetic embryos (zygotic gene activation); assay: Transcriptional activity; format: cell-based, mouse; details: 2 mM EU from 5 h to 24 h after activation
[6] = system: mouse SCNT-derived embryos; details: cited from earlier work
[7] = inhibitor treatment 8 h, Table 4

O=C(CCCCC[C@@H]1NC(=O)[C@H]2CCCN2C(=O)[C@@H]2CCCCCCCCCC[C@@H](NC1=O)C(=O)N2)NO [Ky-309]
No. of two-cell embryos at 24 h ([1]; 0.5 nM, 8 h treatment, Table 2): 251
two-cell embryos at 24 h (%) ([1]; 0.5 nM, 8 h treatment, Table 2): 87.2%
No. of two-cell embryos at 24 h ([1]; 1 nM, 8 h treatment, Table 2): 190
two-cell embryos at 24 h (%) ([1]; 1 nM, 8 h treatment, Table 2): 76.9%
No. of four-cell embryos at 48 h ([1]; 5 nM, 8 h treatment, Table 1): 89
No. of morula/blast at 72 h ([1]; 5 nM, 8 h treatment, Table 1): 61
No. of two-cell embryos at 24 h ([1]; 5 nM, 8 h treatment, Table 1): 106
four-cell embryos at 48 h (% per 2 cells) ([1]; 5 nM, 8 h treatment, Table 1): 84.0%
morula/blast at 72 h (% per 2 cells) ([1]; 5 nM, 8 h treatment, Table 1): 57.5%
two-cell embryos at 24 h (%) ([1]; 5 nM, 8 h treatment, Table 1): 93.8%
No. of two-cell embryos at 24 h ([1]; 5 nM, 8 h treatment, Table 2): 66
two-cell embryos at 24 h (%) ([1]; 5 nM, 8 h treatment, Table 2): 90.4%
No. of four-cell embryos at 48 h ([1]; 100 nM, 8 h treatment, Table 1): 27
No. of morula/blast at 72 h ([1]; 100 nM, 8 h treatment, Table 1): 6
No. of two-cell embryos at 24 h ([1]; 100 nM, 8 h treatment, Table 1): 58
four-cell embryos at 48 h (% per 2 cells) ([1]; 100 nM, 8 h treatment, Table 1): 46.6%
morula/blast at 72 h (% per 2 cells) ([1]; 100 nM, 8 h treatment, Table 1): 10.3%
two-cell embryos at 24 h (%) ([1]; 100 nM, 8 h treatment, Table 1): 84.0%
developmental block / embryotoxicity in SCNT-derived embryos (in words) ([1]; treatment at the one-cell stage): embryonic toxicity; also recorded: moderate two-cell developmental block
No. of cloned offspring ([2]; 5 nM): 0 (0)
No. of implantations ([2]; 5 nM): 4
No. of placentas only ([2]; 5 nM): 0 (0)
cloned offspring (%) ([2]; 5 nM): 0 (0) %
implantations (%) ([2]; 5 nM): 19.0%
placentas only (%) ([2]; 5 nM): 0 (0) %
No. of cloned offspring ([2]; 100 nM): 1
No. of implantations ([2]; 100 nM): 4
No. of placentas only ([2]; 100 nM): 1
cloned offspring (%) ([2]; 100 nM): 16.7%
implantations (%) ([2]; 100 nM): 66.7%
placentas only (%) ([2]; 100 nM): 16.7%
No. of implantations ([3]; 0.5 nM): 32
No. of offspring ([3]; 0.5 nM): 1
No. of placentas only ([3]; 0.5 nM): 0 (0)
implantations (%) ([3]; 0.5 nM): 38.1%
offspring (%) ([3]; 0.5 nM): 1.2%
placentas only (%) ([3]; 0.5 nM): 0 (0) %
No. of implantations ([3]; 1 nM): 21
No. of offspring ([3]; 1 nM): 0 (0)
No. of placentas only ([3]; 1 nM): 0 (0)
implantations (%) ([3]; 1 nM): 30.9%
offspring (%) ([3]; 1 nM): 0 (0) %
placentas only (%) ([3]; 1 nM): 0 (0) %
No. of implantations ([3]; 5 nM): 33
No. of offspring ([3]; 5 nM): 1
No. of placentas only ([3]; 5 nM): 2
implantations (%) ([3]; 5 nM): 50.0%
offspring (%) ([3]; 5 nM): 1.5%
placentas only (%) ([3]; 5 nM): 3.0%
Body weight at term (g ± SD) [4]: 1.61 ± 0.21 g
Placental weight at term (g ± SD) [4]: 0.31 ± 0.05 g
EU fluorescence intensity / effect on ZGA at the two-cell stage [5]: no adverse effects on ZGA

CC(/C=C/C(=O)NO)=C\[C@@H](C)C(=O)c1ccc(N(C)C)cc1 [TSA, trichostatin A, reference compound]
No. of four-cell embryos at 48 h ([1]; 5 nM, 8 h treatment, Table 1): 45
No. of morula/blast at 72 h ([1]; 5 nM, 8 h treatment, Table 1): 32
No. of two-cell embryos at 24 h ([1]; 5 nM, 8 h treatment, Table 1): 49
four-cell embryos at 48 h (% per 2 cells) ([1]; 5 nM, 8 h treatment, Table 1): 91.8%
morula/blast at 72 h (% per 2 cells) ([1]; 5 nM, 8 h treatment, Table 1): 65.3%
two-cell embryos at 24 h (%) ([1]; 5 nM, 8 h treatment, Table 1): 76.5%
No. of two-cell embryos at 24 h ([1]; 5 nM, 8 h treatment, Table 2): 133
two-cell embryos at 24 h (%) ([1]; 5 nM, 8 h treatment, Table 2): 86.9%
Blastocysts at 96 h (% per two cells) [1, 7]: 68.2%
Morulae at 96 h (% per two cells) [1, 7]: 0 (0) %
No. of embryos at 96 h, Blastocysts [1, 7]: 15
No. of embryos at 96 h, Morulae [1, 7]: 0 (0)
No. of four-cell embryos at 48 h [1, 7]: 19
No. of two-cell embryos at 24 h [1, 7]: 22
four-cell embryos at 48 h (% per two cells) [1, 7]: 86.4%
two-cell embryos at 24 h (%) [1, 7]: 100%
No. of cloned offspring ([2]; 5 nM): 1
No. of implantations ([2]; 5 nM): 6
No. of placentas only ([2]; 5 nM): 0 (0)
cloned offspring (%) ([2]; 5 nM): 6.7%
implantations (%) ([2]; 5 nM): 40.0%
placentas only (%) ([2]; 5 nM): 0 (0) %
No. of implantations ([3]; 5 nM): 69
No. of offspring ([3]; 5 nM): 8
No. of placentas only ([3]; 5 nM): 3
implantations (%) ([3]; 5 nM): 63.3%
offspring (%) ([3]; 5 nM): 7.3%
placentas only (%) ([3]; 5 nM): 2.8%
pup rates (birth rates of clones), range over both transfer series ([3]; morula/blastocyst and two-cell transfer experiments): 6.7–7.3%
Body weight at term (g ± SD) [4]: 1.57 ± 0.15 g
Placental weight at term (g ± SD) [4]: 0.28 ± 0.07 g
EU fluorescence intensity / effect on ZGA at the two-cell stage [5]: no adverse effects on ZGA
pup rates per embryos transferred ([6]; mouse SCNT-derived embryos): more than 5%

CCCC(CCC)C(=O)O [VPA, valproic acid]
effect on mouse SCNT [6]: no effect
